Experiments:
[1] = system: Mycobacterium tuberculosis Erdman (autoluminescent); test: total FIC50 (Loewe) at 50% inhibition, three-drug combination (log2); higher = more antagonistic
Experimental: (§1)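 DiaMOND equipotent three-drug combination dose responses (10 doses, 1.5- or 2-fold spacing, centred on IC90) against autoluminescent M. tuberculosis Erdman in 8 in vitro models. Read-out is OD600, or luminescence for the intracellular and dormancy models, normalised to untreated wells. Hill-fit Einf, AUC25 and GRinf are potency metrics; FIC50 and FIC90 are total Loewe fractional inhibitory concentrations as log2 (negative = synergy).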

[2] = system: Mycobacterium tuberculosis Erdman (autoluminescent); test: total FIC90 (Loewe) at 90% inhibition, three-drug combination (log2); higher = more antagonistic
Experimental: as §1

[3] = system: Mycobacterium tuberculosis Erdman (autoluminescent); test: Einf, fitted maximum growth inhibition of three-drug combination (fraction); higher = stronger maximal inhibition
Experimental: as §1

[4] = system: Mycobacterium tuberculosis Erdman (autoluminescent); test: AUC25, normalised area under dose response up to IC25 (three-drug combination) (fraction (0-1)); higher = more potent at low dose
Experimental: as §1

[5] = system: Mycobacterium tuberculosis Erdman (autoluminescent); test: GRinf, maximum normalised growth rate inhibition (three-drug combination) (unitless (-1 to 1)); higher = less effect (negative = killing)
Experimental: as §1

COc1nc2ccc(Br)cc2cc1[C@@H](c1ccccc1)[C@@](O)(CCN(C)C)c1cccc2ccccc12 [bedaquiline] + CC(C)/N=c1\cc2n(-c3ccc(Cl)cc3)c3ccccc3nc-2cc1Nc1ccc(Cl)cc1 [clofazimine] + O=[N+]([O-])c1cn2c(n1)OC[C@@H](OCc1ccc(OC(F)(F)F)cc1)C2 [pretomanid]
Conditions	AUC25, [4]	Einf, [3]	GRinf, [5]	total FIC50, [1]	total FIC90, [2]
in vitro model: acidic pH 5.7, time point: constant (~7 days, model-specific)	0.106	0.809	-0.477	0.502	–
in vitro model: acidic pH 5.7, time point: terminal (~4-5 doublings, model-specific)	0.0881	0.968	-0.411	0.438	0.703
in vitro model: intracellular J774, time point: constant = terminal	–	0.986	-0.307	–	0.235

Conditions	AUC25, [4]	Einf, [3]	GRinf, [5]	total FIC50, [1]	total FIC90, [2]
in vitro model: butyrate, time point: constant (~7 days, model-specific)	0.0748	0.948	-0.105	0.0794	-0.148
in vitro model: butyrate, time point: terminal (~4-5 doublings, model-specific)	0.0598	0.982	-0.123	0.0162	-0.232
in vitro model: cholesterol 0.05 mM, time point: constant (~7 days, model-specific)	0.101	0.724	-0.148	0.099	–
in vitro model: cholesterol 0.05 mM, time point: terminal (~4-5 doublings, model-specific)	0.111	0.938	-0.208	0.567	0.307
in vitro model: cholesterol-high 0.2 mM, time point: constant (~7 days, model-specific)	0.0786	0.94	-0.226	0.161	0.852
in vitro model: cholesterol-high 0.2 mM, time point: terminal (~4-5 doublings, model-specific)	0.0851	1	-0.559	0.209	0.0625
in vitro model: dormancy (butyrate + nitrate, low O2), time point: constant (~7 days, model-specific)	0.0645	0.942	0.201	-0.378	-1.22
in vitro model: dormancy (butyrate + nitrate, low O2), time point: terminal (~4-5 doublings, model-specific)	0.077	0.996	-0.219	-1.08	-1.15
in vitro model: standard 7H9 glycerol, time point: constant = terminal	0.0956	0.967	-0.0799	-0.29	-0.495
in vitro model: valerate, time point: constant (~7 days, model-specific)	0.119	0.91	-0.0979	0.482	-0.269
in vitro model: valerate, time point: terminal (~4-5 doublings, model-specific)	0.0785	0.954	-0.0498	0.323	0.514

COc1nc2ccc(Br)cc2cc1[C@@H](c1ccccc1)[C@@](O)(CCN(C)C)c1cccc2ccccc12 [bedaquiline] + CC[C@@H](CO)NCCN[C@@H](CC)CO [ethambutol] + CC(=O)NC[C@H]1CN(c2ccc(N3CCOCC3)c(F)c2)C(=O)O1 [linezolid]
Conditions	AUC25, [4]	Einf, [3]	GRinf, [5]	total FIC50, [1]	total FIC90, [2]
in vitro model: acidic pH 5.7, time point: constant (~7 days, model-specific)	0.0748	0.822	-0.403	-0.0157	–
in vitro model: acidic pH 5.7, time point: terminal (~4-5 doublings, model-specific)	0.0941	0.977	-0.395	0.509	0.711
in vitro model: intracellular J774, time point: constant = terminal	–	0.922	-0.379	–	0.819

Conditions	AUC25, [4]	Einf, [3]	GRinf, [5]	total FIC50, [1]	total FIC90, [2]
in vitro model: butyrate, time point: constant (~7 days, model-specific)	0.0774	0.931	-0.0747	0.429	–
in vitro model: butyrate, time point: terminal (~4-5 doublings, model-specific)	0.0539	0.964	-0.0521	0.371	-0.223
in vitro model: cholesterol 0.05 mM, time point: constant (~7 days, model-specific)	0.151	0.783	-0.458	0.52	–
in vitro model: cholesterol 0.05 mM, time point: terminal (~4-5 doublings, model-specific)	0.159	0.946	-0.703	8.47	–
in vitro model: cholesterol-high 0.2 mM, time point: constant (~7 days, model-specific)	0.0976	0.984	-1	0.98	–
in vitro model: cholesterol-high 0.2 mM, time point: terminal (~4-5 doublings, model-specific)	0.114	1	-0.946	0.45	1.37
in vitro model: dormancy (butyrate + nitrate, low O2), time point: constant (~7 days, model-specific)	0.124	0.886	0.486	1.37	–
in vitro model: dormancy (butyrate + nitrate, low O2), time point: terminal (~4-5 doublings, model-specific)	0.127	0.989	-0.414	0.241	0.872
in vitro model: standard 7H9 glycerol, time point: constant = terminal	0.0754	0.943	-0.0326	0.387	–
in vitro model: valerate, time point: constant (~7 days, model-specific)	0.106	0.915	-0.161	0.715	–
in vitro model: valerate, time point: terminal (~4-5 doublings, model-specific)	0.0559	0.954	-0.121	0.85	-0.19

COc1nc2ccc(Br)cc2cc1[C@@H](c1ccccc1)[C@@](O)(CCN(C)C)c1cccc2ccccc12 [bedaquiline] + CC[C@@H](CO)NCCN[C@@H](CC)CO [ethambutol] + CO[C@H]1/C=C/O[C@@]2(C)Oc3c(C)c(O)c4c(O)c(c(/C=N/N5CCN(C6CCCC6)CC5)c(O)c4c3C2=O)NC(=O)/C(C)=C\C=C\[C@H](C)[C@H](O)[C@@H](C)[C@@H](O)[C@@H](C)[C@H](OC(C)=O)[C@@H]1C [rifapentine]
Conditions	AUC25, [4]	Einf, [3]	GRinf, [5]	total FIC50, [1]	total FIC90, [2]
in vitro model: acidic pH 5.7, time point: constant (~7 days, model-specific)	0.114	0.961	-0.423	-0.16	–
in vitro model: acidic pH 5.7, time point: terminal (~4-5 doublings, model-specific)	0.0469	0.98	-0.179	0.232	-0.455
in vitro model: intracellular J774, time point: constant = terminal	–	0.947	-0.165	–	-1.85

Conditions	AUC25, [4]	Einf, [3]	GRinf, [5]	total FIC50, [1]	total FIC90, [2]
in vitro model: butyrate, time point: constant (~7 days, model-specific)	0.0669	0.935	-0.0718	0.486	–
in vitro model: butyrate, time point: terminal (~4-5 doublings, model-specific)	0.0551	0.972	-0.0579	0.432	-0.198
in vitro model: cholesterol 0.05 mM, time point: constant (~7 days, model-specific)	0.0736	0.7	-0.229	0.896	–
in vitro model: cholesterol 0.05 mM, time point: terminal (~4-5 doublings, model-specific)	0.0689	0.896	-0.175	1	–
in vitro model: cholesterol-high 0.2 mM, time point: constant (~7 days, model-specific)	0.0263	0.996	-0.736	1.12	–
in vitro model: cholesterol-high 0.2 mM, time point: terminal (~4-5 doublings, model-specific)	0.0449	0.998	-0.697	1.03	1.09
in vitro model: dormancy (butyrate + nitrate, low O2), time point: constant (~7 days, model-specific)	0.125	0.891	0.428	1.06	–
in vitro model: dormancy (butyrate + nitrate, low O2), time point: terminal (~4-5 doublings, model-specific)	0.105	0.982	-0.0507	0.39	0.33
in vitro model: standard 7H9 glycerol, time point: constant = terminal	0.0577	0.931	0.00717	0.213	–
in vitro model: valerate, time point: constant (~7 days, model-specific)	0.0547	0.887	-0.0669	0.793	–
in vitro model: valerate, time point: terminal (~4-5 doublings, model-specific)	0.0403	0.948	-0.0709	0.823	-0.0548

— the supplement of paper PMC8617591
